Target: T1, Vesicular acetylcholine transporter (Torpedo californica, UniProt P81721)
T1 sequence (P81721 whole entry): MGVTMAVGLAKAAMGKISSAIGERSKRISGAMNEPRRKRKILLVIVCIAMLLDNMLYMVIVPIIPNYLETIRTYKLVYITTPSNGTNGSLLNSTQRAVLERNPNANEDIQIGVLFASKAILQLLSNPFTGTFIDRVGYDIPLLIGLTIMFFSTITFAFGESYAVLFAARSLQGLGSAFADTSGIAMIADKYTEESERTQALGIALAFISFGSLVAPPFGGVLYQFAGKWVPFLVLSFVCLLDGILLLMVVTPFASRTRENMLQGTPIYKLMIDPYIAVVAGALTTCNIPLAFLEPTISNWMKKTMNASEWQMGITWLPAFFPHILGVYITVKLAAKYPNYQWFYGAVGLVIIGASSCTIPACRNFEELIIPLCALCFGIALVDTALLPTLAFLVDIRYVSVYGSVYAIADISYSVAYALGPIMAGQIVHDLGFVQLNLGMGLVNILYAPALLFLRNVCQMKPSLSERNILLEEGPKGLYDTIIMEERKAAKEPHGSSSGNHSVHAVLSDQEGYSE
Assay: Displacement of [3H]vesamicol from Vesamicol receptor of Torpedo californica
Parameters: species or system Tetronarce californica

Row | IC50 | Compound
1 | 1400 nM | OC(Cc1cccc2ccccc12)CN1CCC(c2ccccc2)CC1 (centres undefined)
2 | 145 nM | OC(Cc1ccc2ccccc2c1)CN1CCC(c2ccccc2)CC1 (centres undefined)
3 | 520 nM | Oc1cccc(CC(O)CN2CCC(c3ccccc3)CC2)c1 (centres undefined)
4 | 73 nM | OC(Cc1cccc(Br)c1)CN1CCC(c2ccccc2)CC1 (centres undefined)

The next lines start with the molecule.

Row | Compound | IC50
5 | OC(Cc1cccc(I)c1)CN1CCC(c2ccccc2)CC1 (centres undefined) | 73 nM
6 | Oc1ccc(CC(O)CN2CCC(c3ccccc3)CC2)cc1 (centres undefined) | 220 nM
7 | OC(Cc1cccc(Br)c1)CN1CCN(c2ccccc2)CC1 (centres undefined) | 990 nM
8 | OC(Cc1ccc(Br)cc1)CN1CCN(c2ccccc2)CC1 (centres undefined) | 1540 nM
9 | COc1cccc(CC(O)CN2CCC(c3ccccc3)CC2)c1 (centres undefined) | 115 nM

Source: ChEMBL document CHEMBL1125810, “Acyclic analogues of 2-(4-phenylpiperidino)cyclohexanol (vesamicol): conformationally mobile inhibitors of vesicular acetylcholine transport” (J Med Chem, 1991)
